Where two headings read alike, the source gives them in different places.
Experiments:
cAMP = assay: Parotid saliva cAMP after oral theophylline (Example 2); format: in vivo, human; conditions: for cAMP: parotid saliva
Description: (§1) Parotid saliva was collected from each patient by application of a Lashley cup over Stensen's duct with lingual stimulation by placement of concentrated lemon juice. Saliva was collected in plastic tubes and stored at −20° C. until assayed. cAMP and cGMP were measured in saliva by a sensitive 96 plate spectrophotometric assay (R&D Systems, Minneapolis, Minn.).
(§2) All patients were placed in a fixed design open label clinical trial with treatment with oral theophylline. Treatment consisted of fixed treatment periods of two-eight months with sequential doses of the drug at 200 mg, 400 mg and 600 mg. At termination of each of these intervals, patients returned to study site for reevaluation. At the end of each interval subjective responses to treatment were measured with a modification of the 0-100 scale previously used. Subjective responses to treatment were graded on a sliding scale from −100−0-+100 with patients recording improvement (+0-+100), no improvement (0) or worsening (0-−100) of their overall smell function. If overall smell function improved ≥5% they were considered to improve clinically (1). If smell function improved <5% they were considered not to improve (1). At the end of each interval subjective measurements of smell function, measurements of DT, RT, ME and H and measurements of parotid saliva for levels of cAMP and cGMP were obtained. In addition, blood plasma was obtained by venipuncture, placed in ice into zinc free tubes which contained 100 mg zinc free heparin, centrifuged at 3000 rpm for 10-20 min, the plasma transferred to plastic PCR tubes and stored at −20° C. until assayed. Theophylline was assayed by a fluorescence polarization assay (Abbott, Chicago, Ill.), as previously described.
(§3) Data for the cyclic nucleotides from these 31 patients was not analyzed until the entire study of the 312 patients in Example 1 was assembled and analyzed in its entirety. After completion of these analyses, all data for parotid saliva cAMP and cGMP from all patients in whom salivary cAMP and cGMP were obtained were assembled. Levels of salivary cyclic nucleotides varied widely. Initially, without external criteria, there was no way to understand these disparate data. […] In a similar manner, measurements of each patient's plasma theophylline level at each dosage of theophylline (at 200 mg, 400 mg, 600 mg of theophylline) were categorized. The two patient groups were also analyzed post hoc with respect to type of smell loss and etiology of smell loss.

cGMP = assay: Parotid saliva cGMP after oral theophylline (Example 2); format: in vivo, human; conditions: for saliva cGMP levels over initial values: improved patients; for cGMP: parotid saliva
Description: as §1, §2, §3

patients with hyposmia [1] = assay: Side effects of intranasal theophylline (Example 7); format: in vivo, human; conditions: intranasal theophylline 20 μg per naris once a day
Excerpt: Ten hyposmia patients were enrolled in the study; eight patients have completed all four phases of the study with the remaining two patients still in process.

[2] = system: patients with hyposmia and hypogeusia; assay: Adverse effects of intranasal theophylline (Example 8); format: in vivo, human; conditions: intranasal theophylline 20 μg/d in each naris, 4 weeks
Description: Under each condition, we performed subjective evaluations of taste and smell functions, quantitative measurements of taste (gustometry) and smell (olfactometry), and measurements of serum theophylline level and body weight.
The intranasal administration device was a calibrated 1 mL syringe fitted with a nozzle that fit comfortably into the anterior naris (Wolfe Tory Medical, Inc) and loaded under sterile conditions with 20 μg of theophylline methylpropyl paraben in a 0.4-mL saline solution (Foundation Care). Patients were instructed to direct the spray superiorly into the nasal cavity but not posteriorly into the nasopharynx. This technique was practiced before study initiation with sterile saline.

[3] = system: patients with hyposmia and hypogeusia
Description: Subjective changes in smell and taste function under each study condition were measured by questionnaire before measurements of smell or taste function. Responses were graded on a scale from 0 to 100, with 0 reflecting no subjective response in overall sensory function; 100, return to normal sensory function; and values between 0 and 100 intermediate responses. Overall sensory function was defined as the ability to smell all odors and identify all tastants, although response intensity varied.
In this prior trial, oral theophylline was administered daily in 2 divided doses (at breakfast and lunch) of 200, 400, 600, or 800 mg for 2 to 12 months of treatment. Treatment was divided into 2- to 4-month periods, at which time patients returned to The Clinic for measurements of subjective sensory responses, olfactometry, gustometry, serum theophylline level, and body weight.
Each patient delivered the theophylline dose in each naris once daily throughout the study. Patients underwent evaluation 1, 2, and 4 weeks during drug use with the same measurements used for the oral study.
Values for the oral trial were taken from the last measurements made before discontinuation of oral drug treatment and before initiation of the intranasal trial. […] Values for the intranasal pilot study were taken from measurements obtained after completion of 4 weeks of intranasal treatment.

patients with hyposmia [4] = assay: Subjective taste and smell response, intranasal theophylline pilot study (Example 7); conditions: intranasal theophylline 20 μg per naris once a day, four weeks; six of first eight patients
Description: These patients were previously treated with oral theophylline or were switched from oral theophylline to intranasal theophylline at the start of the study. Selection for inclusion in the intranasal study was based upon several criteria. 1) non-response to oral theophylline; 2) severe side effects with oral theophylline that prevented reaching a dose of sufficient strength to restore smell function; and/or 3) preference for intranasal medication over oral medication.
Subjective responses to treatment were obtained independent of any interaction with the clinical staff by using a scale of 0-100 to measure response of taste function and smell function to treatment with 0 indicating no response, 100 indicating return to normal function and intermediate numbers indicating an intermediate response.
The patients inserted a plastic syringe containing 0.4 ml of fluid (20 μg theophylline) into each naris once a day. […] The drug dose was delivered through a plastic nipple which fitted snugly onto the filled syringe which was attached directly to the nipple. One nipple was supplied for each set of two syringes in each application kit. The patient fitted the nipple on one syringe, placed the nipple securely into the lower naris and injected the contents of the syringe directly into the lower vault of one naris accompanied by a modest inhalation. […]

patients with hyposmia [5] = assay: Subjective overall change in smell function; open trial of oral theophylline; format: in vivo, human
Description: Independently, patients were also required to grade their ability to smell daily on a scale from 0-100, with 0 reflecting no overall smell function over a 24 hour period, 100 reflecting normal overall smell function over this period and numbers from 0-100 reflecting their estimation of their overall ability to smell odors over this period.
After determination of hyposmia, patients were treated in an open label, fixed design, controlled open trial. Patients were given an oral extended release theophylline in divided daily doses taken in the middle of breakfast and lunch. All patients were initially given 200 mg of theophylline; changes in this dose were made based upon subjective responses to therapy. If at a subsequent return visit, patients reported ≥5% subjective improvement in overall smell function, they continued on this same dose of theophylline and were reevaluated after four to six months of continued treatment. Results from any subsequent return from these improved patients were not included in any subsequent data report. All subsequent comparisons between treated and untreated patients were made only between those patients continuing in the study compared to their own measurements obtained in the untreated state. If patients reported <5% subjective improvement, their theophylline dose was increased by 200 mg daily and they were scheduled for retesting at the study site after two to four months at this new dosage. For patients that reported <5% improvement, this sequence continued until patients reached 800 mg of theophylline, at which time the study was considered completed.
Patients returned for reevaluation after two to four months of treatment. Measurements of blood serum theophylline were measured by a fluorescence polarization assay (Abbott, Chicago, Ill.). At this time, subjective changes in smell function were measured independently (compared to patient's memory of previous normal smell function monitored by use of the patients' daily measurements) using the scale from −100−0-+100 previously described. After independently recording their subjective responses, smell function was measured for all four odors with DT, RT, ME and H determined without recourse to prior measurements.
Subjective overall changes in smell acuity were reported by telephone and by FAX or email at two—four month intervals after treatment was initiated using the standardized form in which they measured daily changes in smell acuity using the −100−0-+100 scale as noted above. Using the same criteria noted above, if at their initial two—four month call-in they reported improvement in smell acuity of ≥5%, they continued at 200 mg and returned to the study site at four—six months on this treatment dose. If they reported improvement in smell acuity of <5% their dose of theophylline was increased to 400 mg for an additional two—four months and they then called the study site at the end of this period.

[6] = oral theophylline 200 mg, patients with unimproved smell function (9)

Compound: Cn1c(=O)c2[nH]cnc2n(C)c1=O [theophylline]
- increase of saliva cAMP levels above baseline (cAMP; oral theophylline 200 mg, improved patients, not significant): 10%
- increase of saliva cAMP levels over baseline (cAMP; oral theophylline 400 mg, improved group, not statistically significant): 40%
- increase of saliva cAMP levels above initial values (cAMP; oral theophylline 600 mg, improved patients, significant): 67%
- cAMP (cAMP; oral theophylline 200 mg, patients with improved smell function (16)): 0.96 ± 0.13 pmol/mL
- cAMP (cAMP; [6]): 0.78 ± 0.26 pmol/mL
- cAMP (cAMP; oral theophylline 400 mg, patients with improved smell function (12)): 1.22 ± 0.33 pmol/mL
- cAMP (cAMP; oral theophylline 400 mg, patients with unimproved smell function (5)): 0.95 ± 0.26 pmol/mL
- cAMP (cAMP; oral theophylline 600 mg, patients with unimproved smell function (9)): 0.56 ± 0.21 pmol/mL
- saliva cGMP levels over initial values (cGMP; oral theophylline 400 mg): 275%
- saliva cGMP levels over initial values (cGMP; oral theophylline 600 mg): 338%
- cGMP (cGMP; oral theophylline 200 mg, patients with improved smell function (15)): 0.08 ± 0.016 pmol/mL
- cGMP (cGMP; [6]): 0.07 ± 0.018 pmol/mL
- cGMP (cGMP; oral theophylline 400 mg, patients with unimproved smell function (4)): 0.05 ± 0.014 pmol/mL
- cGMP (cGMP; oral theophylline 600 mg, patients with unimproved smell function (5)): 0.04 ± 0.07 pmol/mL
- side effects of intranasal use (patients with hyposmia [1]): No side effects
- adverse effects [2]: No adverse effects
- earliest time improvement was measured ([3]; intranasal theophylline): 1 week
- improvement in taste and smell functions compared with oral treatment ([3]; intranasal theophylline 20 μg/d in each naris, 4 weeks): 2 fold
- patients reporting overall improvement in taste and smell functions ([3]; intranasal theophylline 20 μg/d in each naris, 4 weeks, 10 patients): 8 patients
- earliest time improvement was measured ([3]; oral theophylline): 2 months
- patients reporting overall increased taste and smell function ([3]; oral theophylline 200 to 800 mg/d, 2 to 12 months, 10 patients): 6 patients
- patients with subjective improvement in smell function (patients with hyposmia [4]): 75%
- patients improved ≥5% (subjective smell function) (patients with hyposmia [5]; oral theophylline 200 mg daily, two-six months, 199 returning patients): 17.1%
- improved patients who considered their smell function had returned to normal (patients with hyposmia [5]; oral theophylline 200 mg daily, of 34 improved patients): 26.5%
- non-returning patients reporting >5% improvement (patients with hyposmia [5]; oral theophylline 200 mg, 15 non-returning patients): 46.7%
- improved non-returning patients reporting a return to normal (patients with hyposmia [5]; oral theophylline 200 mg, non-returning patients): 14.3%
- patients improved ≥5% (subjective smell function) (patients with hyposmia [5]; oral theophylline 400 mg daily, two-six months, 120 patients): 29.2%
- improved patients who considered their smell function had returned to normal (patients with hyposmia [5]; oral theophylline 400 mg daily, of 35 improved patients): 8.6%
- patients improved ≥5% (subjective smell function) (patients with hyposmia [5]; oral theophylline 600 mg daily, two-12 months, 160 patients): 41.2%
- patients who considered their smell function had returned to normal (patients with hyposmia [5]; oral theophylline 600 mg daily, 17 patients): 10.6%
- patients improved ≥5% (subjective smell function) (patients with hyposmia [5]; oral theophylline 800 mg daily, two-12 months, 28 patients): 53.6%
- patients who considered their smell function had returned to normal (patients with hyposmia [5]; oral theophylline 800 mg daily, three patients): 33%
- improved patients reporting smell function returned to normal (patients with hyposmia [5]; oral theophylline 200-600 mg, Type III hyposmia): 60%
- patients reporting >5% improvement (patients with hyposmia [5]; oral theophylline 200-600 mg, eight patients with Type III hyposmia): 62.5%
- patients reporting >5% improvement (patients with hyposmia [5]; oral theophylline 200-800 mg, 96 patients with Type I hyposmia): 33.3%
- patients reporting >5% improvement (patients with hyposmia [5]; oral theophylline 200-800 mg, 208 patients with Type II hyposmia): 62%
- improved patients reporting smell function returned to normal (patients with hyposmia [5]; oral theophylline 200-800 mg, Type I hyposmia): 15.6%
- improved patients reporting smell function returned to normal (patients with hyposmia [5]; oral theophylline 200-800 mg, Type II hyposmia): 20.2%
- responsive patients who considered smell function returned to normal levels (patients with hyposmia [5]; oral theophylline, 34 of 157): 21.7%
- patients subjectively responsive to treatment (patients with hyposmia [5]; oral theophylline, 157 of the 312 patients): 50.3%
- all patients in the study who considered smell function returned to normal (patients with hyposmia [5]; oral theophylline, all 312 patients): 10.9%
